Results: patent publication US20260297070A1, “CYCLIC [COMPOUND LEFT OUT] WRN INHIBITORS” (Nimbus Wadjet, Inc., priority 2023, published 2026)

target: T1, human Werner helicase (WRN-BV08, Uniprot Q14191, amino acids 517-1235 with L1074F point mutation) (Homo sapiens, UniProt Q14191, L1074F); experiment: WRN (BV08) ADP-Glo Assay; type: biochemical; conditions: 0.15 nM WRN, 5 μM ATP, 0.1 nM DNA duplex, 15 min preincubation, 60 min at 25° C., pH 7.5, 1% DMSO; read-out: ADP-Glo_hWRN_IC50
T1 construct: Uniprot Q14191, amino acids 517-1235 with L1074F point mutation; TEV-cleavable 8×His (C, cleaved yes); made in house; host or cells: Sf9 insect cells (baculovirus)
T1 sequence (Q14191 with tags, fused parts or gaps L1074F limits assumed): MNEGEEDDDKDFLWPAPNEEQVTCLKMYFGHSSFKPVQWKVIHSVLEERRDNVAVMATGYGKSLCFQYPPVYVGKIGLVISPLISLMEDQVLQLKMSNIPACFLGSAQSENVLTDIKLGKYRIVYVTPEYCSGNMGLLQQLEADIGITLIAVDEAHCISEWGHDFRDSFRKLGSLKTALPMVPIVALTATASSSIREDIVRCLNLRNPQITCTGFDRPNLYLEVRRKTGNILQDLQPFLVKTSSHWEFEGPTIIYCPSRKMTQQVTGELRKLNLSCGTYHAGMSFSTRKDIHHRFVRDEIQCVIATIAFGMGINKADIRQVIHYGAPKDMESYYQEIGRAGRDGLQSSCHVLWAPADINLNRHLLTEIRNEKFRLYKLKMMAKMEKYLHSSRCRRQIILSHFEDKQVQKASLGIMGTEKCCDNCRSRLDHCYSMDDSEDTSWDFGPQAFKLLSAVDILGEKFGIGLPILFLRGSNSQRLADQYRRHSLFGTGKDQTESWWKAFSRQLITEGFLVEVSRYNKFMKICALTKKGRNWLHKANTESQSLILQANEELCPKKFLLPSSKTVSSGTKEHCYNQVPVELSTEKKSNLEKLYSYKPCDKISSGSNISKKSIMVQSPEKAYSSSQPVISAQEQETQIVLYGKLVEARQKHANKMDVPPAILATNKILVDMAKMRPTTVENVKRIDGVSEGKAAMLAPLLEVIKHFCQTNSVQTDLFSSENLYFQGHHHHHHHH
In short: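 0.15 nM WRN (aa 517-1235, L1074F, Sf9-expressed, tag cleaved) preincubated 15 min at 25 °C with compound, then 5 μM ATP and 0.1 nM DNA duplex added for 60 min. Buffer: 20 mM Bicine pH 7.5, 1 mM MgCl2, 10 mM KCl, 1 mM TCEP; 1% DMSO. ADP-Glo luminescence; IC50 by 4-parameter fit.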

IC50 [µM] | Structure (SMILES)
> 50 | CC(C)(C)OC(=O)NC(C(=O)N(Cc1ccccc1)C1C=CS(=O)(=O)C1)c1ccc(-n2cccc2)cc1 (stereo not shown) [I-535, tert-butyl N-{[benzyl(1,1-dioxo-2,3-dihydro-1lambda6-thiophen-3-yl)carbamoyl][4-(1H-pyrrol-1-yl)phenyl]methyl}carbamate]
< 0.5 | COc1cc(CN(C(=O)C(c2ccc(-c3ccc(F)c(F)c3)cc2F)n2nccn2)[C@@H]2C=CS(=O)(=O)C2)ccn1 (stereo partly drawn) [I-733, N-[(3R)-1,1-dioxo-2,3-dihydro-1lambda6-thiophen-3-yl]-N-[(2-methoxypyridin-4-yl)methyl]-2-(2H-1,2,3-triazol-2-yl)-2-{3,3′,4′-trifluoro-[1,1′-biphenyl]-4-yl}acetamide]
10 to 50 | CC(=O)N(C)C(C(=O)N(Cc1ccncc1)C1C=CS(=O)(=O)C1)c1ccc(-c2ccc(F)cc2)cc1 (single isomer, unassigned) [I-282]
0.5 to 5 | O=C(Cc1ccc(-c2ccc(F)cc2)cc1)N(Cc1nc(C2CC2)cs1)C1C=CS(=O)(=O)C1 (stereo not shown) [I-88, N-[(4-cyclopropyl-1,3-thiazol-2-yl)methyl]-N-(1,1-dioxo-2,3-dihydro-1lambda6-thiophen-3-yl)-2-{4′-fluoro-[1,1′-biphenyl]-4-yl}acetamide]
10 to 50 | O=C(Cc1ccc(S(F)(F)(F)(F)F)cc1)N(CC1CC1)C1C=CS(=O)(=O)C1 (stereo not shown) [I-608, N-(cyclopropylmethyl)-N-(1,1-dioxo-2,3-dihydro-1lambda6-thiophen-3-yl)-2-[4-(pentafluoro-lambda6-sulfanyl)phenyl]acetamide]
> 50 | O=C(Cc1ccc(-n2cccc2)cc1)N(Cc1ccccc1)C1C=CS(=O)(=O)C1 (single isomer, unassigned) [I-488]
> 50 | O=C(CCc1ccc(C(F)(F)F)cc1)N(Cc1ccncc1)C1C=CS(=O)(=O)C1 (stereo not shown) [I-507, N-(1,1-dioxo-2,3-dihydro-1lambda6-thiophen-3-yl)-N-[(pyridin-4-yl)methyl]-3-[4-(trifluoromethyl)phenyl]propanamide]
10 to 50 | O=C(CCCC[C@@H]1SC[C@@H]2NC(=O)N[C@@H]21)NCCOCCOCCOCCOCCC(=O)Nc1ccc(Cn2cc(CCCC(=O)N3CCN(C(=O)c4ccc(CN(C(=O)Cc5ccc(-n6cccc6)cc5F)C5C=CS(=O)(=O)C5)cc4)CC3)nn2)nc1 (stereo partly drawn) [II-3, 1-{5-[(3aS,4S,6aR)-2-oxo-hexahydro-1H-thieno[3,4-d]imidazol-4-yl]pentanamido}-N-{6-[(4-{4-[4-(4-{[N-(1,1-dioxo-2,3-dihydro-1lambda6-thiophen-3-yl)-2-[2-fluoro-4-(1H-pyrrol-1-yl)phenyl]acetamido]methyl}benzoyl)piperazin-1-yl]-4-oxobutyl}-1H-1,2,3-triazol-1-yl)methyl]pyridin-3-yl}-3,6,9,12-tetraoxapentadecan-15-amide]
> 50 | COc1cc(CN(C(=O)Cc2ccc(-n3ccc(F)cc3=O)cc2F)C2C=CS(=O)(=O)C2)ccn1 (stereo not shown) [I-453, N-(1,1-dioxo-2,3-dihydro-1lambda6-thiophen-3-yl)-2-[2-fluoro-4-(4-fluoro-2-oxo-1,2-dihydropyridin-1-yl)phenyl]-N-[(2-methoxypyridin-4-yl)methyl]acetamide]
10 to 50 | O=C(Cn1cc(-c2ccccc2)cn1)N(Cc1ccncc1)C1C=CS(=O)(=O)C1 (single isomer, unassigned) [I-281]
> 50 | COc1cc(CN(C(=O)C(OC)c2ccc(-c3ccc(F)cc3)cc2F)C2C=CS(=O)(=O)C2)ccn1 (single isomer, unassigned) [I-405, (2R*)-2-{3,4′-difluoro-[1,1′-biphenyl]-4-yl}-N-[(3R**)-1,1-dioxo-2,3-dihydro-1lambda6-thiophen-3-yl]-2-methoxy-N-[(2-methoxypyridin-4-yl)methyl]acetamide]
> 50 | O=C(CCc1cnc2n1CCCCC2)N(Cc1ccncc1)C1C=CS(=O)(=O)C1 (stereo not shown) [I-560, N-(1,1-dioxo-2,3-dihydro-1lambda6-thiophen-3-yl)-3-{5H,6H,7H,8H,9H-imidazo[1,2-a]azepin-3-yl}-N-[(pyridin-4-yl)methyl]propanamide]
0.5 to 5 | COc1cc(CN(C(=O)Cn2ncc3cc(C(F)(F)C(F)(F)F)ccc32)[C@@H]2C=CS(=O)(=O)C2)ccn1 [I-770, N-[(3R)-1,1-dioxo-2,3-dihydro-1lambda6-thiophen-3-yl]-N-[(2-methoxypyridin-4-yl)methyl]-2-[5-(1,1,2,2,2-pentafluoroethyl)-1H-indazol-1-yl]acetamide]
10 to 50 | O=C(Cc1ccc(-n2cccc2)c(F)c1)N(Cc1ccncc1)C1C=CS(=O)(=O)C1 (stereo not shown) [I-327, N-(1,1-dioxo-2,3-dihydro-1lambda6-thiophen-3-yl)-2-[3-fluoro-4-(1H-pyrrol-1-yl)phenyl]-N-[(pyridin-4-yl)methyl]acetamide]
> 50 | Cc1nc2cc(CC(=O)N(Cc3ccncc3)C3C=CS(=O)(=O)C3)ccc2o1 (stereo not shown) [I-610, N-(1,1-dioxo-2,3-dihydro-1lambda6-thiophen-3-yl)-2-(2-methyl-1,3-benzoxazol-5-yl)-N-[(pyridin-4-yl)methyl]acetamide]
0.5 to 5 | CN(CCc1ccncc1)C(=O)c1ccc(CN(C(=O)Cc2ccc(-c3ccc(F)c(F)c3)cc2F)C2C=CS(=O)(=O)C2)cc1 (stereo not shown) [I-791, 4-{[N-(1,1-dioxo-2,3-dihydro-1lambda6-thiophen-3-yl)-2-{3,3′,4′-trifluoro-[1,1′-biphenyl]-4-yl}acetamido]methyl}-N-methyl-N-[2-(pyridin-4-yl)ethyl]benzamide]
< 0.5 | COc1cc(CN(C(=O)C(C(=O)N(C)CC2CC(F)(F)C2)c2ccc(-c3ccc(F)c(F)c3)cc2F)[C@@H]2C=CS(=O)(=O)C2)ccn1 (stereo partly drawn) [I-822, N-[(3,3-difluorocyclobutyl)methyl]-N′-[(3R)-1,1-dioxo-2,3-dihydro-1lambda6-thiophen-3-yl]-N′-[(2-methoxypyridin-4-yl)methyl]-N-methyl-2-{3,3′,4′-trifluoro-[1,1′-biphenyl]-4-yl}propanediamide]
5 to 10 | CC(C)(O)c1csc(CN(C(=O)Cc2ccc(S(F)(F)(F)(F)F)cc2)C2C=CS(=O)(=O)C2)n1 (single isomer, unassigned) [I-708]
5 to 10 | Cc1cnc(CN(C(=O)Cc2ccc(-n3cccc3)cc2)C2C=CS(=O)(=O)C2)s1 (stereo not shown) [I-274, N-(1,1-dioxo-2,3-dihydro-1lambda6-thiophen-3-yl)-N-[(5-methyl-1,3-thiazol-2-yl)methyl]-2-[4-(1H-pyrrol-1-yl)phenyl]acetamide]
5 to 10 | CN(C)C(=O)C(C(=O)N(Cc1ccnc(C(C)(C)O)c1)C1C=CS(=O)(=O)C1)c1ccc(-c2ccc(F)cc2)cc1F (single isomer, unassigned) [I-237, (2R**)-2-{3,4′-difluoro-[1,1′-biphenyl]-4-yl}-N-[(3R*)-1,1-dioxo-2,3-dihydro-1lambda6-thiophen-3-yl]-N-{[2-(2-hydroxypropan-2-yl)pyridin-4-yl]methyl}-N′,N′-dimethylpropanediamide]
< 0.5 | COc1cc(CN(C(=O)C(OC)c2ccc(-c3ccc(F)cc3)cc2F)C2C=CS(=O)(=O)C2)ccn1 (single isomer, unassigned) [I-33, (2R*)-2-{3,4′-difluoro-[1,1′-biphenyl]-4-yl}-N-[(3R**)-1,1-dioxo-2,3-dihydro-1lambda6-thiophen-3-yl]-2-methoxy-N-[(2-methoxypyridin-4-yl)methyl]acetamide]
> 50 | CS(=O)(=O)N1CCN(C(C(=O)N(Cc2ccncc2)C2C=CS(=O)(=O)C2)c2ccc(-c3ccc(F)cc3)cc2)CC1 (stereo not shown) [I-548, N-(1,1-dioxo-2,3-dihydro-1lambda6-thiophen-3-yl)-2-{4′-fluoro-[1,1′-biphenyl]-4-yl}-2-(4-methanesulfonylpiperazin-1-yl)-N-[(pyridin-4-yl)methyl]acetamide]
< 0.5 | CC(C)(O)c1cc(CN(C(=O)C(OCCC(F)F)c2ccc(-c3ccc(F)c(F)c3)cc2F)[C@@H]2C=CS(=O)(=O)C2)ccn1 (single isomer, unassigned) [I-812]
< 0.5 | O=C(C(c1ccc(-c2ccc(F)c(F)c2)cc1F)n1cccn1)N(Cc1ccncc1)C1C=CS(=O)(=O)C1 (stereo not shown) [I-48, N-(1,1-dioxido-2,3-dihydrothiophen-3-yl)-2-(1H-pyrazol-1-yl)-N-(pyridin-4-ylmethyl)-2-(3,3′,4′-trifluoro-[1,1′-biphenyl]-4-yl)acetamide]
5 to 10 | CC(C(=O)N(Cc1ccncc1)C1C=CS(=O)(=O)C1)c1ccc(-c2ccc(F)cc2)cc1 (stereo not shown) [I-266, N-(1,1-dioxo-2,3-dihydro-1lambda6-thiophen-3-yl)-2-{4′-fluoro-[1,1′-biphenyl]-4-yl}-N-[(pyridin-4-yl)methyl]propanamide]
> 50 | O=C(N[C@H](Cc1c[nH]c2ccccc12)C(=O)N(Cc1ccncc1)C1C=CS(=O)(=O)C1)C1CC1 (stereo partly drawn) [I-397, (2R)-2-(cyclopropylformamido)-N-(1,1-dioxo-2,3-dihydro-1lambda6-thiophen-3-yl)-3-(1H-indol-3-yl)-N-[(pyridin-4-yl)methyl]propanamide]
< 0.5 | COc1cc(CN(C(=O)Cn2cc3cc(C(F)(F)C(F)(F)F)ccc3n2)[C@@H]2C=CS(=O)(=O)C2)ccn1 [I-771, N-[(3R)-1,1-dioxo-2,3-dihydro-1lambda6-thiophen-3-yl]-N-[(2-methoxypyridin-4-yl)methyl]-2-[5-(1,1,2,2,2-pentafluoroethyl)-2H-indazol-2-yl]acetamide]
0.5 to 5 | Cc1cccn1-c1ccc(CC(=O)N(Cc2ccncc2)C2C=CS(=O)(=O)C2)cc1 (stereo not shown) [I-206, N-(1,1-dioxo-2,3-dihydro-1lambda6-thiophen-3-yl)-2-[4-(2-methyl-1H-pyrrol-1-yl)phenyl]-N-[(pyridin-4-yl)methyl]acetamide]
